Columns and labels:
Panc-1 cells [1] = test: MTT cell survival assay, Panc-1; format: cell-based; settings: Homo sapiens, Panc-1, 72 h, read-out: Cytotoxicity IC50
Method: (§1) We evaluated the effects of FBA-TPQ on the survival of several human pancreatic cancer cell lines, including HPAC (p53^+/+), Panc-1(p53^+/−), and Mia PaCa-2(p53^+/−), as well as normal IRM90 fetal fibroblast cells (Figure 2a). Cells were exposed to various concentrations of the test compound (0–10 µM) for 72 h, and cell survival rates were determined by the MTT assay, using a procedure reported previously. FBA-TPQ exerted potent effects against the test cancer cell lines, leading to significant decreases in cell viability.
(§2) Human pancreatic cancer cells were obtained from the American Type Culture Collection (Rockville, MD). All cell culture media contained 10% FBS and 1% penicillin/streptomycin. […]
(§3) The effect of the test compound on human pancreatic cancer cell viability, expressed as the percentage of cell survival, was determined using the MTT (3-(4,5-dimethylthiazol-2-yl)-2,5-diphenyl tetrazolium bromide) assay. […] The absorbance at 570 nm was recorded using an OPTImax microplate reader (Molecular Devices; Sunnyvale, CA, USA). The cell survival percentages were calculated by dividing the mean OD of compound-containing wells by that of DMSO-containing control wells. […]

[2] = MTT cell survival assay, IMR-90 normal fibroblasts; format: cell-based; settings: human, IMR-90 normal fetal fibroblast cells, read-out: Cytotoxicity IC50
Method: as §1, §2, §3

Panc-1 cells [3] = test: Annexin V apoptosis assay/flow cytometry, Panc-1; format: cell-based, human; settings: Panc-1, 1 µM, 48 h
Method: The apoptotic cells were detected using a method reported previously. […] In HPAC cells, a 1 µM concentration of FBA-TPQ increased the apoptotic index two-fold higher than that seen in control cells (P < 0.01). […] In the Mia PaCa-2 cells, FBA-TPQ at 1 µM led to a three-fold increase in apoptosis (P < 0.01).
Following a similar protocol as above, cells in early and late stages of apoptosis were detected using an Annexin V-FITC apoptosis detection kit from BioVision (Mountain View, CA, USA), according to the manufacturer’s protocol. For apoptosis experiments, 2–3 × 10^5 cells were exposed to the test compound (0, 0.1, 0.5 and 1.0 µM) and incubated for 48 h prior to analysis. Cells were collected and washed with serum-free media. Cells were then re-suspended in 500 µL of Annexin V binding buffer followed by addition of 5 µL of Annexin V-FITC and 5 µL of propidium iodide (PI). The samples were incubated in the dark for 5 min at room temperature and analyzed with a Becton Dickinson FACSCalibur instrument (Ex = 488 nm; Em = 530 nm). Cells that were positive for Annexin V-FITC alone (early apoptosis) and Annexin V-FITC and PI (late apoptosis) were counted. The apoptotic index was calculated against the untreated control cells.

Mia PaCa-2 cells = test: Cell cycle distribution by flow cytometry, Mia PaCa-2; format: cell-based, human; settings: Mia PaCa-2, 1 µM
Method: The effects of FBA-TPQ on cell cycle distribution were analyzed using the previously reported methods; its effects appeared to be cell-line-dependent (Figure 2c). […] The differences in the responses of the different cell lines may be related to their expression of p53.
To determine the effect of FBA-TPQ on the cell cycle, cells (2–3 × 10^5) were exposed to the test compounds (0, 0.1, 0.5 or 1 µM) and incubated for 24 h prior to analysis. Cells were trypsinized, washed with PBS, and fixed in 1.5 mL of 95% ethanol and 0.5 mL of 0.9% saline solution at 4 °C overnight, followed by incubation with RNAse and staining with propidium iodide (Sigma). The DNA content was determined by flow cytometry. The cell cycle distribution was evaluated by comparing with that of the control cells.

[4] = Stability in plasma and tissue samples; format: in vitro ADME, mouse; settings: RE within ±15%
Method: The stability of FBA-TPQ was evaluated at two concentrations (0.5 and 5.0 µM). […] At the designated time points, the samples were extracted and analyzed using the established RRLC analytical method. The stability of FBA-TPQ was assessed by comparing the initial concentration (time 0) with the final concentration following incubation of the compound at the noted temperatures, and expressing this difference as a percentage of the initial concentration.

[5] = system: murine hepatic S9 fractions containing Phase I and II metabolic enzymes; test: S9 metabolism; format: in vitro ADME; settings: mouse hepatic S9, 10 μM, 60 min incubation
Method: As a preliminary study of the metabolism of FBA-TPQ, the compound was incubated with S9 fractions containing Phase I and Phase II metabolic enzymes and their co-factors for 15, 30, 45, or 60 min. […] No specific peaks that seemed to correspond to unique metabolites were identified using the current RRLC method.
A preliminary study of the metabolism of FBA-TPQ was done using murine hepatic S9 fractions containing Phase I and II metabolic enzymes. […] Duplicate aliquots of the mixtures were taken at 0, 15, 30, 45, and 60 min, and the samples were processed and analyzed. The percent of FBA-TPQ that was metabolized by Phase I and Phase II enzymes was calculated by comparing the initial concentration of the iminoquinone to the measured concentration following incubation.

[6] = system: prostate, breast, and ovarian cancer cell lines; design: method as in PMID 19274441, PMID 19451594, PMID 21673964; settings: cited from earlier work

O=C1C(NCc2ccc(F)cc2)=CC2=NCCc3c[nH]c1c32 [FBA-TPQ, 7-(4-fluorobenzylamino)-1,3,4,8-tetrahydropyrrolo[4,3,2-de]quinolin-8(1H)-one]
IC50 (Panc-1 cells [1]): 110 ± 10 nM
IC50 at 72 h [2]: 5820 ± 460 nM
increase in apoptosis vs control cells (Panc-1 cells [3]): four-fold
cell cycle arrest (Mia PaCa-2 cells): arrest in the S phase
stability in plasma and tissue samples ([4]; 3 months at −80 °C): stable
stability in plasma and tissue samples ([4]; 2 h at 22 °C following three freeze/thaw cycles (−20 to 22 °C)): stable
stability in plasma and tissue samples ([4]; 24 h after preparation at 22 °C, low and high concentrations): stable
compound metabolized by Phase I components [5]: approximately 14.3%
compound metabolized by Phase II components [5]: ~1.8%
IC50 values [6]: nanomolar/low micromolar

From paper PMC3397457, “Preclinical Evaluation of Anticancer Efficacy and Pharmacological Properties of FBA-TPQ, a Novel Synthetic Makaluvamine Analog” (Marine Drugs, 2012)
